From patent publication US10647700B2, “EZH2 inhibitor and use thereof” (TARAPEUTICS SCIENCE INC., priority 2017, dated 2020)

Target: EZH2 (Homo sapiens (Human), UniProt Q15910)
Assay: E-cadherin promoter luciferase reporter gene primary screening in 293T cells
Format: cell-based
Conditions: 293T cells treated for 24 hours, Dual-Glo luciferase; for 1 μM relative fluorescence intensity: compound 1 μM; for 10 μM relative fluorescence intensity: compound 10 μM; for 3 μM relative fluorescence intensity: compound 3 μM
Excerpt: EZH2 suppresses the expression of downstream E-cadherin, and upon EZH2 suppression, expression of E-cadherin will increase. Based on such principle, a reporter gene expression vector was constructed using luciferase.
The amplified fragments after PCR and the PGL4.1 vector (purchased from TAKARA, Japan) were respectively subjected to enzyme digestion with SacI and BglII (purchased from TAKARA, Japan), and then purified with PCR cleanup kit (Axygen PCR cleanup kit). Subsequently, the purified and enzyme-digested PCR products was ligated to the purified and enzyme-digested PGL4.1 vector using ligase solution I (DNA Ligation Kit Ver.2.1, purchased from TAKARA, Japan), and subjected to transformation. Single clones were then screened out and subjected to sequencing, and the obtained positive plasmid containing promoter fragments of Ecadherin was named E-cadherin RE-PGL4.1.
Meanwhile, a Renilla fluorescent vector was constructed using PCDNA4.1 (purchased from Thermofisher, USA) as the template to amplify the fragment of CMV promoter. After enzymatic digestion of the amplified CMV sequences and pGL4.70 vector (purchased from Promega, USA) with KpnI and XhoI (purchased from Promega, USA), purification was conducted with PCR cleanup kit (Axygen PCR cleanup kit). Then the enzyme-digested PCR product was ligated to the enzyme-digested PGL4.70 vector using ligase solution I (DNA Ligation Kit Ver.2.1, purchased from TAKARA, Japan) and the resultant was subjected to transformation. Subsequently single clones were screened and subjected to sequencing, and the obtained plasmid that contained CMV sequence was named as Plasmid Renilla luciferase-pGL4.70. Said plasmid utilized CMV promoter to achieve high expression of Renilla luciferase, which served as the control fluorescence for the primary screening system.
The cells were firstly added with 20 μL Dual-Glo® Luciferase Assay Reagent, then incubated under room temperature for 10 minutes, and read on microplate reader Spectramax i3 (Molecular Devices, USA) to obtain the data of primary screening, which is shown in Table 1.

Sequence of EZH2 (Q15910 whole entry): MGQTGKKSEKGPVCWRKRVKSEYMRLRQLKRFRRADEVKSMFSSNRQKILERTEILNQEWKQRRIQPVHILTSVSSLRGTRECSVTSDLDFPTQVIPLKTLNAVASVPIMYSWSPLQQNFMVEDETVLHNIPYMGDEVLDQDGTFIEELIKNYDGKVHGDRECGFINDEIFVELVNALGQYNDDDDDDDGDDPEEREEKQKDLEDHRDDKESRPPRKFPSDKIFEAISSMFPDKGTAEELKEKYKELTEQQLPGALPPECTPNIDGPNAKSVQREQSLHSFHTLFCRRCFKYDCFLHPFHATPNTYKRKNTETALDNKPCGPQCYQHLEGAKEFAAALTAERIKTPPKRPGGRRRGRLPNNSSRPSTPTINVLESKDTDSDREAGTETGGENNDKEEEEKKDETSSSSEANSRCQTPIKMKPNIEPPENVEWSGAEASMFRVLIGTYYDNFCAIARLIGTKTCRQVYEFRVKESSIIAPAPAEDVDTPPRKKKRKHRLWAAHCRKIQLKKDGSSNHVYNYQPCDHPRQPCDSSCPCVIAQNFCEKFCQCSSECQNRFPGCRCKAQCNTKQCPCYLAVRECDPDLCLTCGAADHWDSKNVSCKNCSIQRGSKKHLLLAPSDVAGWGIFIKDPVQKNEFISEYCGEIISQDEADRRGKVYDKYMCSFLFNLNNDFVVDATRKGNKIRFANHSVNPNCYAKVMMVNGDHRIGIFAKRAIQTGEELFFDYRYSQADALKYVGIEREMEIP
Sequence of EZH2 (O75530 whole entry partner): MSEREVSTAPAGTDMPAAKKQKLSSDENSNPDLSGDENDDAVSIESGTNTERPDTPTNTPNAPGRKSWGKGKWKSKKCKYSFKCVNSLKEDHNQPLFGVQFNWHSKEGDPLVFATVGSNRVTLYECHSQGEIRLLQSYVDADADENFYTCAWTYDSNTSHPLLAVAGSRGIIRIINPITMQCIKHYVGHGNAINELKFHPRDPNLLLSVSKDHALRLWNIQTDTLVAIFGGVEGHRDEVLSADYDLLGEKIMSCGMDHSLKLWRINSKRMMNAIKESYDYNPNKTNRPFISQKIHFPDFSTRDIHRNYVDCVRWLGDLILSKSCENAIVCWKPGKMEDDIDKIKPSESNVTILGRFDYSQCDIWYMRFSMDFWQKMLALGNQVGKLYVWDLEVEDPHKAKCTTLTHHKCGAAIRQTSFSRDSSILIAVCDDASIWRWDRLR
Sequence of EZH2 (Q15022 whole entry partner): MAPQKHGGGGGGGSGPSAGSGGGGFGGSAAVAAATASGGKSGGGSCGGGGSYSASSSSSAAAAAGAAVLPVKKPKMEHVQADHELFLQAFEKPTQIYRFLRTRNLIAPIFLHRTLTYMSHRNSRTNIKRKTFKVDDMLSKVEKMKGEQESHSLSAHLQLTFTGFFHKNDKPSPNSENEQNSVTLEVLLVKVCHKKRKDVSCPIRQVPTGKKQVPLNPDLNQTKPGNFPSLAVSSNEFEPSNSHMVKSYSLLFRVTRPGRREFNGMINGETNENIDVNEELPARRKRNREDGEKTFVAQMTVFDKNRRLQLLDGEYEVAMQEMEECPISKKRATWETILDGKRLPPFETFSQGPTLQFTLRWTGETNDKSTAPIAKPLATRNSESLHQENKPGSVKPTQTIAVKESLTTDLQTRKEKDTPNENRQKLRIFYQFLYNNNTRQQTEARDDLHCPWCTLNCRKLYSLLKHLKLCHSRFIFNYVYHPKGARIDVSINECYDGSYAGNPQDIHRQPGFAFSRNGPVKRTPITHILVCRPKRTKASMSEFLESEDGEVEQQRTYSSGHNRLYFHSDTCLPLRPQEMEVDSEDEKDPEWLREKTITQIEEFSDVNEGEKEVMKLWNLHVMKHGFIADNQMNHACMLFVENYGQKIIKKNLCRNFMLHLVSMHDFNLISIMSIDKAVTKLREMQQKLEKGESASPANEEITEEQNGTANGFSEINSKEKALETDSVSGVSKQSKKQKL
Sequence of EZH2 (Q09028 whole entry partner): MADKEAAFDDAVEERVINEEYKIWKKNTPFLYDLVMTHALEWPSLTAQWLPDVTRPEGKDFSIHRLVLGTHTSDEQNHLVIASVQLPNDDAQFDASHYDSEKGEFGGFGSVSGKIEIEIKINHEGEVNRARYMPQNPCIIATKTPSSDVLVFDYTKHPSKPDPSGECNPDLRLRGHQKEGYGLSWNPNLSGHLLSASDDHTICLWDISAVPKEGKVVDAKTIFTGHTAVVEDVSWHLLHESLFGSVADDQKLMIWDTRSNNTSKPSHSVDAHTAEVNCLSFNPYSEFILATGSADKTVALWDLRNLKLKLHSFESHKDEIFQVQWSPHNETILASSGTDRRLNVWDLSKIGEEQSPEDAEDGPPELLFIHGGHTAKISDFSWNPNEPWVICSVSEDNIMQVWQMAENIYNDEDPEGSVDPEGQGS

Compound	1 μM relative fluorescence intensity	10 μM relative fluorescence intensity	3 μM relative fluorescence intensity
CCN(C(=O)C1CCCC1)c1cc(-c2ccc(N3CCN(CC4CC4)CC3)nc2)cc(C(=O)NCc2c(C)cc(C)[nH]c2=O)c1C [Compound 15, 5-(6-(4-(cyclopropylmethyl)piperazin-1-yl)pyridin-3-yl)-N-((4,6-dimethyl-2-oxo-1,2-dihydropyridin-3-yl)methyl)-3-(N-ethylcyclopentanecarboxamido)-2-methylbenzamide]	262.61	335.61	–
CCN(C(=O)C1CCCC1)c1cc(-c2ccnc(N3CCN(C)CC3)c2)cc(C(=O)NCc2c(C)cc(C)[nH]c2=O)c1C [Compound 17, N-((4,6-dimethyl-2-oxo-1,2-dihydropyridin-3-yl)methyl)-3-(N-ethylcyclopentanecarboxamido)-2-methyl-5-(2-(4-methylpiperazin-1-yl)pyridin-4-yl)benzamide]	172	303	223
CCN(C(=O)C1CCCC1)c1cc(-c2ccc(N3CCN(C(C)C)CC3)nc2)cc(C(=O)NCc2c(C)cc(C)[nH]c2=O)c1C [Compound 18, N-((4,6-dimethyl-2-oxo-1,2-dihydropyridin-3-yl)methyl)-3-(N-ethylcyclopentanecarboxamido)-5-(6-(4-isopropylpiperazin-1-yl)pyridin-3-yl)-2-methylbenzamide]	289	423	356
CCN(C(=O)C1CCCC1)c1cc(-c2ccc(C#N)c(F)c2)cc(C(=O)NCc2c(C)cc(C)[nH]c2=O)c1C [Compound 19, 4′-cyano-N-((4,6-dimethyl-2-oxo-1,2-dihydropyridin-3-yl)methyl)-5-(N-ethylcyclopentanecarboxamido)-3′-fluoro-4-methyl-[1,1′-diphenyl]-3-carboxamide]	189	310	228
CCN(C(=O)C1CCCC1)c1cc(-c2ccc(NS(=O)(=O)C3CC3)cc2)cc(C(=O)NCc2c(C)cc(C)[nH]c2=O)c1C [Compound 28, 4′-(cyclopropanesulfonamide)-N-((4,6-dimethyl-2-oxo-1,2-dihydropyridin-3-yl)methyl)-5-(N-ethylcyclopentanecarboxamido)-4-methyl-[1,1′-diphenyl]-3-carboxamide]	163.93	345.23	–
CCN(C(=O)C1CCCC1)c1cc(C(N)=O)cc(C(=O)NCc2c(C)cc(C)[nH]c2=O)c1C [Compound 34, N^1-((4,6-dimethyl-2-oxo-1,2-dihydropyridin-3-yl)methyl)-5-(N-ethylcyclopentanecarboxamido)-6-methyl-isophthalamide]	98.36	109.72	–
CCN(C(=O)C1CCCC1)c1cc(-c2ccc(CN3CCNC[C@H]3CO)cc2)cc(C(=O)NCc2c(C)cc(C)[nH]c2=O)c1C [Compound 35]	83.82	123.19	–
CCN(C(=O)C1CCCC1)c1cc(-c2ccc(N3CCN(C)CC3)nc2)cc(C(=O)NCc2c(C)cc(C)[nH]c2=O)c1C [Compound 36, N-((4,6-dimethyl-2-oxo-1,2-dihydropyridin-3-yl)methyl)-3-(N-ethylcyclopentanecarboxamido)-2-methyl-5-(6-(4-methylpiperazin-1-yl)pyridin-3-yl)benzamide]	211.26	312.36	–
CCN(C(=O)C1CCCC1)c1cc(-c2ccc(N3CCC(N)CC3)nc2)cc(C(=O)NCc2c(C)cc(C)[nH]c2=O)c1C [Compound 37, 5-(6-(4-aminopiperidin-1-yl)pyridin-3-yl)-N-((4,6-dimethyl-2-oxo-1,2-dihydropyridin-3-yl)methyl)-3-(N-ethylcyclopentanecarboxamido)-2-methylbenzamide]	163.93	345.23	–
CCN(C(=O)C1CCCC1)c1cc(-c2ccc(Oc3ccccc3)cc2)cc(C(=O)NCc2c(C)cc(C)[nH]c2=O)c1C [Compound 41, N-((4,6-dimethyl-2-oxo-1,2-dihydropyridin-3-yl)methyl)-5-(N-ethylcyclopentanecarboxamido)-4-methyl-4′-phenoxy-[1,1′-diphenyl]-3-carboxamide]	156.04	183.38	–

The next lines start with the values.

1 μM relative fluorescence intensity	10 μM relative fluorescence intensity	3 μM relative fluorescence intensity	Compound
193	227	213	CCN(C(=O)C1CCCC1)c1cc(-c2ccc(C(=O)N3CCOCC3)cc2)cc(C(=O)NCc2c(C)cc(C)[nH]c2=O)c1C [Compound 20, N-((4,6-dimethyl-2-oxo-1,2-dihydropyridin-3-yl)methyl)-5-(N-ethylcyclopentanecarboxamido)-4-methyl-4′-(morpholin-4-carbonyl)-[1,1′-diphenyl]-3-carboxamide]
170	339	225	CCN(C(=O)C1CCCC1)c1cc(-c2ccc(N3CCOCC3)cc2)cc(C(=O)NCc2c(C)cc(C)[nH]c2=O)c1C [Compound 21, N-((4,6-dimethyl-2-oxo-1,2-dihydropyridin-3-yl)methyl)-5-(N-ethylcyclopentanecarboxamido)-4-methyl-4′-morpholinyl-[1,1′-diphenyl]-3-carboxamide]
171	242	194	CCN(C(=O)C1CCCC1)c1cc(-c2ccc(CC(=O)N3CCOCC3)cc2)cc(C(=O)NCc2c(C)cc(C)[nH]c2=O)c1C [Compound 22, N-((4,6-dimethyl-2-oxo-1,2-dihydropyridin-3-yl)methyl)-5-(N-ethylcyclopentanecarboxamido)-4-methyl-4′-(2-morpholinyl-2-oxoethyl)-[1,1′-diphenyl]-3-carboxamide]
290	343	346	CCN1CCN(Cc2ccc(-c3cc(C(=O)NCc4c(C)cc(C)[nH]c4=O)c(C)c(N(CC)C(=O)C4CCCC4)c3)cc2)CC1 [Compound 23, N-((4,6-dimethyl-2-oxo-1,2-dihydropyridin-3-yl)methyl)-5-(N-ethylcyclopentanecarboxamido)-4′-((4-ethylpiperazin-1-yl)methyl)-4-methyl-[1,1′-diphenyl]-3-carboxamide]
204.86	335.96	–	CCN1CCN(c2ccc(-c3cc(C(=O)NCc4c(C)cc(C)[nH]c4=O)c(C)c(N(CC)C(=O)C4CCCC4)c3)cc2)CC1 [Compound 27, N-((4,6-dimethyl-2-oxo-1,2-dihydropyridin-3-yl)methyl)-5-(N-ethylcyclopentanecarboxamido)-4′-(4-ethylpiperazin-1-yl)-4-methyl-[1,1′-diphenyl]-3-carboxamide]
253.44	231.21	–	CCN(C(=O)C1CCCC1)c1cc(-c2ccc(OCCCN3CCOCC3)cc2)cc(C(=O)NCc2c(C)cc(C)[nH]c2=O)c1C [Compound 30, N-((4,6-dimethyl-2-oxo-1,2-dihydropyridin-3-yl)methyl)-5-(N-ethylcyclopentanecarboxamido)-4-methyl-4′-(3-morpholinopropoxy)-[1,1′-diphenyl]-3-carboxamide]
